{"source": "paper PMC8715118", "about": "“Assessing potentiation of the (α4)3(β2)2 nicotinic acetylcholine receptor by the allosteric agonist CMPI” (The Journal of Biological Chemistry, 2021)", "target": "T1, (α4)3(β2)2 nAChR (Homo sapiens, UniProt P17787+P43681)", "T1 construct": "expressed in transfected cells; host or cells: Xenopus laevis oocytes injected with cRNA, 8:1 α4:β2", "T1 sequence (P43681 27-627)": "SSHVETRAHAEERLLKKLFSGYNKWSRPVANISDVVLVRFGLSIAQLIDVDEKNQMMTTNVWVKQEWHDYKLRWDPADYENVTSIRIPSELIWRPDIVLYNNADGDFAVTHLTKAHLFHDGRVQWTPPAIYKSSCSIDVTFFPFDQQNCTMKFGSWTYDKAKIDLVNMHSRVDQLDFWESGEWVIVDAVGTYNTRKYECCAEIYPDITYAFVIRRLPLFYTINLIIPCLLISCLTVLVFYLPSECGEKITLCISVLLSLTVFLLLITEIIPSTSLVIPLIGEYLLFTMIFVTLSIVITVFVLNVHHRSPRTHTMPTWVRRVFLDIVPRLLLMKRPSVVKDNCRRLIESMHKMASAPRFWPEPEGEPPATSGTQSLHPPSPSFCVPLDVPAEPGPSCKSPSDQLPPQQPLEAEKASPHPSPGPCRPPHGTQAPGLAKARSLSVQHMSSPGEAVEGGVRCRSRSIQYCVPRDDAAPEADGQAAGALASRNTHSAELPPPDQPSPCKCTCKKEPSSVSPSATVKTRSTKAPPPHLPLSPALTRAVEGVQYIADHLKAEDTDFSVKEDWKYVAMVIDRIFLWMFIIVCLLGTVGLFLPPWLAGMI", "T1 sequence (P17787 26-502)": "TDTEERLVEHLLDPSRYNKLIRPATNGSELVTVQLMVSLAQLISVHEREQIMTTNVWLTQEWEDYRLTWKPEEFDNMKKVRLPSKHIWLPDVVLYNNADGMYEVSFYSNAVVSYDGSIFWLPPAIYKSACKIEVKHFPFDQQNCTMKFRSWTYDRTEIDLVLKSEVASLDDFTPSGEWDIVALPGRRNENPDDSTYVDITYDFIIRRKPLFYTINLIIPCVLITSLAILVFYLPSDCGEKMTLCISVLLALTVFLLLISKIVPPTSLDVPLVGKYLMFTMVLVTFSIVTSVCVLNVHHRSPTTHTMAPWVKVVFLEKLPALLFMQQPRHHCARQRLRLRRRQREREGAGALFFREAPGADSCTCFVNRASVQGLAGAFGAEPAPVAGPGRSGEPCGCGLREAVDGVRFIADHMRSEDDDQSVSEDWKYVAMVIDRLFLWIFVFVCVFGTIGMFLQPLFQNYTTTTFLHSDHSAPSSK", "test": "Mechanistic (Monod-Wyman-Changeux two-state model) analysis of current responses, WT (α4)3(β2)2 nAChR", "format": "cell-based", "details": "for peak PA: calculated with Equation 2", "from_the_text": "To gain mechanistic insight into receptor activation in the presence of CMPI, we analyzed the currents in the framework of a cyclic two-state (resting and active) allosteric activation model ([31], [32], [33]). In this model, channel opening is mediated by stabilization of the active state by an agonist that, by definition, has higher affinity to the active than resting state.\nWe commenced by converting the raw amplitudes of current responses to units of probability of being in the active state (PA units).\nFurther analysis of electrophysiological data was conducted in the framework of the two-state concerted transition model, adapted from the MWC cyclic model originally used to describe enzyme function ([31], [32], [33]). The raw peak amplitudes of current responses were converted to units of probability of being in the active state (PA).\nThe numbers of α4:β2 and α4:α4 binding sites (Nα4:β2 and Nα4:α4) were constrained to 2 and 1, respectively.\nThe concentration-response curve for TC-2559 was fitted to the following equation:(3) PA=1/1+L[1+[TC-2559]/KR,TC-2559,α4:β2/1+[TC-2559]/(KR,TC-2559,α4:β2cTC-2559,α4:β2)]^Nα4:β2\nThe concentration-response data were analyzed using Equation 3, with the value of L modified to reflect receptor activation by TC-2559, and the affinity and efficacy terms in the equation reflecting the values for CMPI. The number of binding sites for CMPI in Equation 3 was constrained to 1.\nCurve fitting was done using Origin 2020 (OriginLab Corp). The results are reported as best-fit parameter ±SD of the fit. All data are included in the analysis.", "note": "Several values for one entry are separate records, joined by “and”; a condition that tells them apart may be missing. Equal entries are not always repeated."}
{"smiles": "CC(=O)OCC[N+](C)(C)C", "note": "[ACh, Acetylcholine chloride]", "values": [{"measurement": "PA,1 mM ACh (peak probability of being in the active state)", "setting": "1 mM ACh, normalized to 1 mM ACh + 3 μM dFBr", "value": "0.36 ± 0.05 and 0.36"}, {"measurement": "free energy change toward stabilization of the active state (ΔGgating)", "setting": "binding to the single α4:α4 site", "value": -1.27, "unit": "kcal/mol"}, {"measurement": "free energy change toward stabilization of the active state (ΔGgating,total)", "setting": "binding to the two α4:β2 sites", "value": -1.69, "unit": "kcal/mol"}, {"measurement": "peak PA", "setting": "occupation of the two α4:β2 sites and the single α4:α4 site with ACh", "value": 0.36}, {"measurement": "peak PA", "setting": "occupation of the two α4:β2 sites with ACh", "value": 0.072}, {"measurement": "ΔGgating per site", "setting": "per α4:β2 site", "value": -0.84, "unit": "kcal/mol"}]}
